Reference: article PMC5391125, “Fatty acid DSF binds and allosterically activates histidine kinase RpfC of phytopathogenic bacterium Xanthomonas campestris pv. campestris to regulate quorum-sensing and virulence” (PLoS Pathogens, 2017)

Legend:
soluble RpfC^Δinput = biological target: T1, soluble RpfC^Δinput (Xanthomonas campestris pv. campestris, UniProt P0C0F7); assay: Thermal shift assay, soluble RpfC^Δinput; assay type: binding
T1 construct: a truncated, soluble RpfC protein (RpfC^Δinput) lacking the N-terminal input region (including sensor and TM domains) was obtained and purified; His6 (C); made in house; host or cells: E. coli BL21(DE3), pET30a
Method: (§1) DSF was mixed with purified proteins or liposomes of RpfC to a final concentration of 0 μM, 5 μM or 10 μM respectively in the reaction buffer (50 mM Tris-HCl pH 7.8, 25 mM NaCl, 100 mM KCl). The protein concentration was 0.5–1 μg/μl. The TSA was performed by a Prometheus NT.48 nanoDSF device with a temperature gradient of 20–95°C, 1°C /min. Unfolding transition points were determined according to the changes of intrinsic tryptophan fluorescence at 330 nm, 350 nm. The ratio of fluorescence and the melting temperature (Tm) were calculated by the NT Melting Control software (NanoTemper Technologies).

RpfC^S3A liposome = biological target: T2, RpfC^S3A liposome (Xanthomonas campestris pv. campestris, UniProt P0C0F7, S3A); assay: Autokinase assay, RpfC^S3A liposome; assay type: biochemical; conditions: 0.75 μM DSF, 5 min
T2 construct: His6 (C); made in house; host or cells: E. coli BL21(DE3), pET30a
Method: (§2) in vitro phosphorylation assay was conducted as described in our previous study. For autophosphoylation, RpfC liposomes or IMV were incubated with 100 μM ATP containing 10 μCi [γ-^32P]ATP (PerkinElmer, USA) in autophosphorylation buffer (50 mM Tris-HCl, pH 7.8, 2 mM DTT, 25 mM NaCl, 25 mM KCl, 5 mM MgCl2) for indicated time (28°C). If necessary, DSF was added into the mixture 20 min before addition of ATP. The reaction was stopped with 6 × SDS-PAGE loading buffer. The phosphorylated proteins were separated by 12% SDS-PAGE. After SDS-PAGE electrophoresis, gels were separated from back glass plate and placed in a Ziploc bag and exposed to a phosphor screen for 1 hour. The screen was scanned with a PhosphorImage system (Amersham Biosciences, USA) at […]. If necessary, signal intensity was measured by Quantity One software (Bio-Rad).

RpfC sensor peptide = biological target: T3, RpfC sensor peptide (Xanthomonas campestris pv. campestris, UniProt P0C0F7); assay: MST binding, purified RpfC sensor peptide; conditions: sensor peptide with GST tag removed, read-out: dissociation constant (Kd)
T3 construct: GST (N, cleaved yes); made in house; host or cells: E. coli BL21 (DE3), pGEX6P-1
Method: RpfC sensor fused with a GST tag was obtained and purified according to the GST Gene Fusion System Handbook (Amersham Biosciences) with GST Resin (TRANS). In order to acquire sensor peptide with GST tag cleaved off, on-column cleavage procedure was conducted. In brief, lysate of recombinant E.coli BL21 (DE3) strain was mixed with pre-equilibrated GST Resin with PBS buffer for ten minutes before loading into column. The column was washed by PBS buffer and resuspened with PreScission buffer (50 mM Tris-HCl, pH 8.5, 150 mM NaCl). Following the injection of 2 units PreScission Protease (GenScript), the column was sealed and placed on a rotator at 4°C. After 10 h of digestion, the flow fractions were collected, which contains preliminary sensor peptide with the GST tag being moved. If necessary, the sensor peptide was purified again by the GST Resin to get rid of uncleaved sensor-GST fusion protein. […]
Binding reactions of RpfC to DSF was measured by microscale thermophoresis in a Monolith NT.Label Free (Nano Temper Technologies GMBH, Germany) instrument which detects changes in size, charge and conformation induced by binding. […] The sample was loaded into the NT.Label Free standard capillaries and measured with 20% LED power and 40% MST power. […]

RpfS = biological target: RpfS; set-up: method as in PMID 24617591, PMID 23815566; conditions: by ITC; read-out: binding affinity (Kd) DSF-RpfS; cited from earlier work
RpfC^S18T liposome = biological target: T4, RpfC^S18T liposome (Xanthomonas campestris pv. campestris, UniProt P0C0F7, S18T); assay: Autokinase assay, RpfC^S18T liposome; assay type: biochemical; conditions: 0.75 μM DSF, 5 min; increase slightly lower than WT RpfC
T4 construct: His6 (C); made in house; host or cells: E. coli BL21(DE3), pET30a
Method: as §2

RpfC^Q22A liposome = biological target: T5, RpfC^Q22A liposome (Xanthomonas campestris pv. campestris, UniProt P0C0F7, Q22A); assay: Autokinase assay, RpfC^Q22A liposome; assay type: biochemical; conditions: 0.75 μM DSF, 5 min
T5 construct: His6 (C); made in house; host or cells: E. coli BL21(DE3), pET30a
Method: as §2

RpfC^FL IMV = biological target: T6, RpfC^FL IMV (Xanthomonas campestris pv. campestris, UniProt P0C0F7); assay: In vitro autokinase assay, RpfC^FL inverted membrane vesicles; assay type: biochemical; conditions: 10 μM DSF
T6 construct: His6 (C); made in house; host or cells: E. coli BL21(DE3), pET30a
Method: as §2

RpfC^Δsensor liposome = biological target: T7, RpfC^Δsensor liposome (Xanthomonas campestris pv. campestris, UniProt P0C0F7); assay: Thermal shift assay, RpfC^Δsensor liposome; assay type: binding
T7 construct: His6 (C); made in house; host or cells: E. coli BL21(DE3), pET30a
Method: as §1

RpfC^R15A liposome = biological target: T8, RpfC^R15A liposome (Xanthomonas campestris pv. campestris, UniProt P0C0F7, R15A); assay: MST binding, RpfC^R15A liposome
T8 construct: His6 (C); made in house; host or cells: E. coli BL21(DE3), pET30a
Method: Binding reactions of RpfC to DSF was measured by microscale thermophoresis in a Monolith NT.Label Free (Nano Temper Technologies GMBH, Germany) instrument which detects changes in size, charge and conformation induced by binding. RpfC liposomes were collected with centrifugation of 200,000 g for 40 min and resuspended in MST buffer (50 mM Tris-HCl pH 7.8, 150 mM NaCl, 10 mM MgCl2, 0.05% Tween-20) to an approximate concentration of 0.1 μM. A range of concentration of DSF (range from 0.06 μM to 2 mM) in assay buffer (50 mM Tris-HCl pH 7.8, 150 mM NaCl, 10 mM MgCl2, 0.05% Tween-20, 5% methanol) was incubated with RpfC liposomes (1:1, v/v) for 10 minutes. The sample was loaded into the NT.Label Free standard capillaries and measured with 20% LED power and 40% MST power. Purified sensor protein was dissolved in reaction buffer (50 mM Tris-HCl pH 8.5, 150 mM NaCl, 0.1% Tween-20) to a final concentration as 8 μM. Dilute DSF from 0.0122 μM to 25 μM in buffer (50 mM Tris-HCl pH 8.5, 150 mM NaCl, 0.25‰ methanol). Different concentrations of DSF and sensor protein (1:1, v/v) were mixed and loaded into NT.Label Free standard capillaries. […]
Supplementary file ppat.1006304.s004.pdf: S4 Fig Substitution of essential amino acid impact DSF-RpfC interaction. Microscale thermophoresis (MST) was used to quantify the binding affinity between DSF and RpfC derivates. […]

[1] = biological target: T9, soluble RpfC protein without input region (RpfC^Δinput) (Xanthomonas campestris pv. campestris, UniProt P0C0F7); assay: MST binding, soluble RpfC^Δinput; conditions: RpfC^Δinput 0.1 μM
T9 construct: a truncated, soluble RpfC protein (RpfC^Δinput) lacking the N-terminal input region (including sensor and TM domains) was obtained and purified; His6 (C); made in house; host or cells: E. coli BL21(DE3), pET30a

RpfC^FL liposome = biological target: T10, RpfC^FL liposome (Xanthomonas campestris pv. campestris, UniProt P0C0F7); assay: Thermal shift assay (differential scanning fluorimetry), RpfC^FL liposome; assay type: binding
T10 construct: His6 (C); made in house; host or cells: E. coli BL21(DE3), pET30a
Method: as §1

GST = GST (Schistosoma japonicum, UniProt P08515); assay: Circular dichroism of GST; conditions: GST 6 μM
cell-cell communication = test system: cell-cell communication; set-up: method as in PMID 14731288; conditions: cited from earlier work

Q: Which “thermal shift after DSF stimulation” value (soluble RpfC^Δinput) does the source give for CC(C)CCCCCCC/C=C\C(=O)O [DSF, cis-11-methyl-dodecenoic acid] here?
A: no thermal shift was detected

Q: And the “RpfC-P level under DSF stimulation” value (RpfC^S3A liposome)?
A: remarkably increased

Q: And the Kd (RpfC sensor peptide)?
A: 140 ± 40 nM

Q: And the Kd (RpfS)?
A: 1400 nM

Q: What about the “autophosphorylation level under DSF stimulation” value (RpfC^S18T liposome) of the same compound?
A: increased

Q: What about the “RpfC-P levels under DSF treatment” value (RpfC^Q22A liposome) of the same compound?
A: significant decrease

Q: What about the “level of RpfC^FL-P phosphorylation compared with the control” value (RpfC^FL IMV) of the same compound?
A: approximately doubled

Q: And the “time of increase in phosphorylation level post DSF addition” value (RpfC^FL IMV)?
A: 30 s

Q: And the “thermal shift after DSF stimulation” value (RpfC^Δsensor liposome)?
A: no thermal shift was detected

Q: And the “binding between DSF and RpfC liposome” value (RpfC^R15A liposome)?
A: completely eliminated the binding

Q: What about the “binding to DSF” value [1] of the same compound?
A: didn’t bind

Q: What about the “melting temperature (Tm)” value (RpfC^FL liposome; 5 μM DSF vs. 10 μM RpfC) of the same compound?
A: 64.27 °C

Q: What about the “melting temperature (Tm)” value (RpfC^FL liposome; 10 μM DSF vs. 10 μM RpfC) of the same compound?
A: 66.27 °C

Q: What about the “impact on secondary structure” value (GST) of the same compound?
A: did not have recognizable impact

Q: And the “minimal bioactive concentration of DSF required for eliciting cell-cell communication” value (cell-cell communication)?
A: approximately 0.5 μM
